The source of these data is ChEMBL document CHEMBL5113500, “New brefeldin A-cinnamic acid ester derivatives as potential antitumor agents: Design, synthesis and biological evaluation” (Eur J Med Chem, 2022).

Data set [1] concerns HepG2. In words: Antiproliferative activity against human HepG2 cells assessed as cell growth inhibition at 1 uM measured after 72 hrs by MTT assay relative to control. The data set is classed as functional. As to conditions: read-out: GI.
The subject of data set [2] is HepG2. In words: Antiproliferative activity against human HepG2 cells measured after 72 hrs by MTT assay. As to conditions: HepG2, 72 h. It is filed as functional, cell-based.
In data set [3] the test system is Bel-7402. In words: Antiproliferative activity against human Bel-7402 cells measured after 72 hrs by MTT assay. It is filed as functional, cell-based. As to conditions: Bel-7402, 72 h.
Data set [4] concerns HeLa. In words: Antiproliferative activity against human HeLa cells measured after 72 hrs by MTT assay. It is filed as functional, cell-based.
Data set [5] has as its system ECa-109 cell line. In words: Antiproliferative activity against human Eca-109 cells measured after 72 hrs by MTT assay. The data set is classed as functional, cell-based. Conditions: ECa-109, 72 h.
The test system of data set [6] is PANC-1. In words: Antiproliferative activity against human PANC-1 cells measured after 72 hrs by MTT assay. As to conditions: PANC-1, 72 h. It is filed as functional, cell-based.
Data set [7] can be described thus: Cytotoxicity against human L02 cells measured after 72 hrs by MTT assay. It is filed as toxicity, cell-based.
The nature of data set [8]: Selectivity index, ratio of IC50 for human L02 cells to IC50 for human HepG2 cells. As to conditions: L02 cells and HepG2 cells, read-out: Ratio IC50. The data set is classed as toxicity.
Data set [9] is described as follows: Solubility of the compound in 5% DMSO and 10% Solutol HS-15 saline solution. The data set is classed as physicochemical.

Structures are written as SMILES. Converted amounts (≈) assume the structure as drawn.

With `C[C@H]1CCC/C=C/[C@@H]2C[C@H](O)C[C@H]2[C@H](O)/C=C/C(=O)O1` [BREFELDIN A], the inhibition of growth at 1 µM in [1] turned out to be 94.4%. In addition, the concentration for half-maximal inhibition (IC50) in data set [2] was 180 nM; in [3], 170 nM; in [4] it was 70 nM; in [5], 140 nM; in [6], 80 nM. The compound also displayed an IC50 at 72 h in data set [7] of 100 nM. Besides, the selectivity ratio in [8] was 0.56. In [9], the concentration in solution (solubility) came to 1000 µg/mL (≈ 3.57 mM).
Regarding `Cc1ccccc1/C=C/C(=O)O[C@@H]1/C=C/C(=O)O[C@@H](C)CCC/C=C/[C@@H]2C[C@H](O)C[C@H]21`, the inhibition of growth at 1 µM in data set [1] is 37.1%. The IC50 turned out to be 1860 nM in [2]; 1770 nM in data set [3]; 750 nM in data set [4]; 2680 nM in data set [5]; 630 nM in data set [6].
In the case of `C[C@H]1CCC/C=C/[C@@H]2C[C@H](O)C[C@H]2[C@H](OC(=O)/C=C/c2ccc(F)cc2)/C=C/C(=O)O1`, in data set [1], the inhibition of growth at 1 µM is 62%. Also, the 50% inhibitory concentration (IC50) in data set [2] came out at 1020 nM; in data set [3], 790 nM; in data set [4], 750 nM; in data set [5] it was 1140 nM; in data set [6] it was 570 nM.
Regarding `C[C@H]1CCC/C=C/[C@@H]2C[C@H](OC(=O)/C=C/c3cccc(F)c3)C[C@H]2[C@H](O)/C=C/C(=O)O1`, the inhibition of growth at 1 µM in data set [1] is 71.1%. For the same compound, the IC50 in data set [2] worked out at 450 nM; in data set [3], 920 nM; in [4], 2740 nM; in [5] it was 2140 nM; in data set [6] it was 610 nM.
On to `C[C@H]1CCC/C=C/[C@@H]2C[C@H](OC(=O)/C=C/c3ccccc3Br)C[C@H]2[C@H](O)/C=C/C(=O)O1`, for which the inhibition of growth at 1 µM in data set [1] was determined as 70.5%. Further, the IC50 is 410 nM in data set [2]; 890 nM in [3]; 570 nM in data set [4]; 500 nM in data set [5]; 280 nM in data set [6].
